The values below come from patent US8067456B2 (AEterna Zentaris GmbH, priority 2004, dated 2011).

SMILES strings stand for the structures. Converted amounts (≈) assume the structure as drawn.

Series [1] deals with T1, LHRH receptor (Rattus norvegicus, UniProt P30969).
T1 construct: rat pituitary cells which naturally strongly express the LHRH receptor; from tissue; host or cells: rat pituitary cells (membrane preparation)
T1 sequence (P30969 1-327): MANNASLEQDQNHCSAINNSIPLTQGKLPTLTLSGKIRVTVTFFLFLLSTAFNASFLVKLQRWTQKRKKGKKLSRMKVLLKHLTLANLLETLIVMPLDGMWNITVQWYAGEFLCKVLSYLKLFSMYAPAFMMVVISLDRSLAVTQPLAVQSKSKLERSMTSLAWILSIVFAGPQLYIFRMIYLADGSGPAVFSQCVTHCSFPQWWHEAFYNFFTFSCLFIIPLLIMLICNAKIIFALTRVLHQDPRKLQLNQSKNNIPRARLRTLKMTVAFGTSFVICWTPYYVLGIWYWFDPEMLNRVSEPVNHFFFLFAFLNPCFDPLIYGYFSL
Nature of the series: LHRH receptor-ligand binding assay (membrane preparations from rat pituitary cells). The conditions noted are these: competition with 0.05 nM [125I][D-Trp6]-LHRH, 90 min, 4° C., rat pituitary membranes. Here is the method: Heterologous competition experiments were carried out using membrane preparations from rat pituitary cells which naturally strongly express the LHRH receptor. The ligand used in this case was [^125I][D-Trp^6]-LHRH in a concentration of 0.05 nM. Unlabeled [D-Trp^6]-LHRH was used in a concentration of 1 μM, or the test substance was used in the desired concentration, for competition. After an incubation time of 90 minutes at 4° C., the bound ligand was measured by scintillation (Halmos et al., Proc. Natl. Acad. Sci. USA, 1996, 93, 2398).
The result obtained was the percentage proportion of bound ligand in the presence of the competitor related to the specifically bound proportion of the control (see result for selected compounds in Table 3). EC50 values were calculated by nonlinear regression analysis of the competition plots.

In series [2] the target is T2, rat LHRH receptor (Rattus norvegicus, UniProt P30969).
T2 construct: expressed in transfected cells; host or cells: LTK cells (mouse fibroblasts, ATCC CCL-1.3)
T2 sequence (P30969 1-327): T1 sequence (P30969 1-327)
Nature of the series: LHRH receptor-ligand binding assay (transfected LTK cells). The conditions noted are these: LTK cells transfected with rat LHRH receptor, 125I-triptorelin tracer, 37° C., 60 min; read-out: Binding to r-LHRHR EC50. Here is the method: ^125I-Triptorelin [^125I-(D)-Trp6-GnRH] was purchased from Biotrend (Cologne, Germany).
The specific activity was in each case 2.13 Ci/mmol.
LTK cells (mouse fibroblasts: ATCC No. CCL-1.3) which have been transfected with the rat LHRH receptor are cultivated in DMEM medium (Invitrogen Life Technologies, Germany) with penicillin (100 I.U./ml), streptomycin (0.1 mg/ml) and glutamine (0.01 mol/l) and 10% fetal calf serum (FCS; Invitrogen Life Technologies, Germany) on plastic tissue culture plates (Nunc, Germany, 245×245-20 mm).
80% confluent cell culture plates are washed twice with 50 ml of phosphate-buffered saline (PBS) and then detached with 0.01 M EDTA solution. The cells are pelleted by centrifugation at 200·g for 5 min in a laboratory centrifuge (Kendro, Germany). The cell pellet is resuspended in 3 ml of binding medium (DMEM; 10 mM Hepes; 0.5% BSA; 0.1% […]; 1 g/l bacitracin (add fresh, stock 100×); 0.1 g/l SBTI (add fresh, stock 1000×) and the cell count is determined by Trypan blue staining in a Neubauer counting chamber. The cell suspension is adjusted with binding medium to a concentration of 5×10^5 cells/0.05 ml.
Binding studies for competition plots are carried out as duplicates. The test substances are employed as 10 mM DMSO solutions. They are diluted to 4 times the final concentration employed with binding medium. 25 μl of the substance dilution are mixed with 25 μl of tracer solution (^125I-triptorelin or ^125I-cetrorelix). The tracer concentration is adjusted to approx. 50 000 cpm (measured in a Cobra II, γ counter. PE Liefe Science, Germany) in the final reaction volume of 100 μl.
200 μl of silicone/liquid paraffin mixture (84%:16%) are introduced into 650 μl conical tubes (Roth. Germany). 50 μl of the cell suspension are pipetted thereon, followed by 50 μl of the test substance/tracer mixture. The tubes are capped and incubated with vertical rotation in an incubator at 37° C. for 60 min. After incubation, the samples are centrifuged in a centrifuge (Kendro, Germany) at 900 rpm and subsequently shock-frozen in liquid N2. The tip with the cell pellet is cut off and transferred into prepared counting vials (Roth, Germany). The remainder of the conical tube with the remaining supernatant is likewise transferred into a counting vial. The measurement takes place in a γ counter for 1 min/sample.
Evaluation of the samples takes place after calculation of the specific binding compared with untreated cells, after subtraction of the nonspecific binding (excess of unlabeled ligand, 1 μM) by means of GraphPad Prism or alternatively by means of OMMM software.

Series [3] relates to castrated rats. Nature of the series: LH concentration suppression in the plasma of castrated rats. The conditions noted are these: 100 mg/kg oral in Solutol HS15/1,2-propane-diol (3:1). It counts as in vivo, rat. How it is done: The LH concentration in the plasma of castrated rats was measured using the rat luteinizing hormone (rLH) enzyme immunoassay (EIA) system ELISA (RPN 2562) from Amersham Pharmacia Biotech or of LH RIA-AH R002 rats; from Biocode-Hycel, Liege, Belgium. All other chemicals used were from commercial sources in the highest purity available.
10 days before the start of the test, male Sprague Dawley rats (Harlan Winkelmann, Germany) weighing 190-220 g were anesthetized with ether and castrated and provided with a silicone catheter for permanent blood sampling.
At the start of the test, before administration of the substance, blood samples were taken and the LH level determined. The substance was then administered orally in the desired concentration. The number of animals used in each group was 8. At the stated times, further blood samples were taken. The blood was collected in heparinized sample tubes on ice, and the plasma was obtained by centrifugation at 3000 g for 10 minutes. The plasma samples were stored at −20° C. until the LH concentration was measured by ELISA or RIA. The LH concentration was determined by an ELISA or RIA in duplicate determination in accordance with the manufacturer's (Amersham Pharmacia Biotech; Biocode-Hycel) instructions.
All the other data points for each individual animal were calculated as relative concentration compared with the LH concentration before treatment.

A short description of series [4]: Saturation solubility in water. In kind it is physicochemical. The note with it: water, thermodynamic from solid; maximum of 1% DMSO added, HPLC UV. How it is done:
The saturation solubility in water was determined in accordance with the following description: to initiate dissolving of the substances and to improve the wetting of the samples, a maximum of 1% DMSO was added. The content was checked by using an HPLC UV method.

A short description of series [5]: Metabolic stability in human liver microsomes. It counts as in vitro ADME. The conditions noted are these: 1 μM, 37° C., NADPH. Here is the method: The metabolic stability in relation to liver microsomes (species human, rat) was determined in accordance with the following description: the substances were incubated at a test concentration of 1 […] An HPLC MS/MS method was subsequently used to quantify the unmetabolized amount of starting compound relative to 100%.
Background: Microsomes from liver hold many membrane-bound enzymes, among them those of drug oxidation.

Consider `CCC(C)[C@H](NC(=O)OCc1ccccc1)C(=O)N[C@]1(C(=O)N[C@H](C(N)=S)C(C)CC)CCc2[nH]c3c(Cl)cc(Cl)cc3c2C1` (stereo partly drawn) [Compound 7, benzyl {(S)-1-[(R)-6,8-dichloro-3-((S)-2-methyl-1-thiocarbamoylbutylcarbamoyl)-2,3,4,9-tetrahydro-1H-carbazol-3-ylcarbamoyl]-2-methylbutyl}carbamate], for which the concentration giving a half-maximal response (EC50) (in general, the concentration giving half of the maximal effect) in series [1] is 6.9 nM; in series [2] it was 7.9 nM. Moreover, the “Relative LH concentration (%) (averages ± SEM compared with the concentration before treatment)” value in series [3] (time 0 h) is recorded as 91.8 ± 19.1%; in series [3] (time +4 h), 19.6 ± 8.9%; in series [3] (time +6 h) it was 10.1 ± 3.2%; in series [3] (time +24 h), 65.1 ± 13.9%; in series [3] (time +48 h) it was 110.6 ± 33.0%; in series [3] (time +72 h), 268.4 ± 93.0%. In addition, the “Relative LH concentration (%) (averages ± SEM compared with the concentration before treatment)” value in series [3] (time −2 h (before treatment)) stood at 110.8 ± 12.2%; in series [3] (time −4 h (before treatment)) it was 97.4 ± 15.3%. The concentration in solution in series [4] (solubility) was 54.6 µg/mL (≈ 80.9 µM). In series [5], this molecule showed a recovery at 1 μM of 65%.
